The text below walks through data of patent US9918983B2, “Suicidal LSD1 inhibitors targeting SOX2-expressing cancer cells” (THE BOARD OF REGENTS OF THE NEVADA SYSTEM OF HIGHER …, priority 2013, dated 2018).

One assay relates to ES-2 cells. Put plainly: Cell growth/viability (MTT, microscopy). Format: cell-based, human. Particulars: ES-2 cells, 50 μM, 30 hours. How it is done:
(§1) Lung, breast, ovarian, and other carcinoma cells were either obtained from American Type Culture Collection (ATCC) or from the DTP and DCTD Tumor Repository of National Cancer Institute (the NCI-60 cancer cell line panel), operated by Charles River Laboratory, Inc., as listed in Table 1. They were cultured according to instructions and treated with various concentrations of LSD1 inhibitors for 30-36 hours for mRNA analysis by quantitative real time RT-PCR or for 30-48 hours for protein analysis and the cell viability assays using Western blotting or microscopy and MTT assays as described previously (Wang, J., et al. (2011) Cancer Research 71, 7238-7249).
Alternatively, cell viability assays were conducted as previously described (Wang, J., et al. (2011) Cancer Research 71, 7238-7249). […] Dimethylsulfoxide (DMSO) was used as a solvent control. MTT was added to a final concentration of 0.5 mg/mL and cells were re-incubated for 4 hours. After removing the medium, 200 μL DMSO was added to dissolve formazan, followed by incubation for 10 minutes, and absorbance was measured at 490 nm by a Bio Red microplate reader. All assays were performed in triplicates for each concentration. The cell viability rate was calculated as the relative percentage of MTT absorption as follows: % cell viability=(mean experimental absorbance/mean control absorbance)×100.
Table 8 below lists activity of CBB3001 (compound 10) in Sox2-negative (ES-2) and Sox2-expressing (PA-1 and T47D) cancer cells determined in a cell-based assay as described herein (see also FIG. 3A-C).

The next assay concerns A549 cells. Kind of assay: Cell growth/viability (MTT, microscopy). It is filed as cell-based, human. Particulars: 50 μM, 30 hr. The protocol: as §1
(§2) Alternatively, cell viability assays were conducted as previously described (Wang, J., et al. (2011) Cancer Research 71, 7238-7249). For the MTT assay, cells were seeded onto 96-well culture plates with a density of 2000-5000 cells/well, and incubated with CBB1003 or CBB1007 at various concentrations from 1 to 100 μM for 30-48 hours, depending cell growth rate. Dimethylsulfoxide (DMSO) was used as a solvent control. MTT was added to a final concentration of 0.5 mg/mL and cells were re-incubated for 4 hours. After removing the medium, 200 μL DMSO was added to dissolve formazan, followed by incubation for 10 minutes, and absorbance was measured at 490 nm by a Bio Red microplate reader. All assays were performed in triplicates for each concentration. The cell viability rate was calculated as the relative percentage of MTT absorption as follows: % cell viability=(mean experimental absorbance/mean control absorbance)×100. […]
(§3) Referring to FIG. 5C, the percent viability of cells treated with LSD1 inhibitors or siRNAs compared with control cells, as determined by 3-(4,5-dimethylthiazol-2-yl)-2,5-diphenyltetrazolium bromide (MTT) assay is shown. […] The statistical differences between inhibitor-treated and control groups were analyzed by one-way ANOVA (scale bar=[…]; **p<0.01).

Another assay deals with NCI-H520 cells. Kind of assay: Cell growth/viability (MTT, microscopy). It is filed as cell-based, human. The conditions noted are these: 24-30 hr (50 μM, 30 hr in FIG. 5B). The protocol:
as §1, §2, §3

A further assay relates to G401 cells. Kind of assay: Cell growth/viability (MTT, microscopy). Format: cell-based, human. The conditions noted are these: 50 μM, 30 hours. The protocol:
as §1
Alternatively, cell viability assays were conducted as previously described (Wang, J., et al. (2011) Cancer Research 71, 7238-7249). […] After removing the medium, 200 μL DMSO was added to dissolve formazan, followed by incubation for 10 minutes, and absorbance was measured at 490 nm by a Bio Red microplate reader. […] The cell viability rate was calculated as the relative percentage of MTT absorption as follows: % cell viability=(mean experimental absorbance/mean control absorbance)×100.
Referring to FIG. 10B, Sox2-expressing myelogenous leukemia and rhabdoid tumor cells were also sensitive to LSD1 inhibitors. […] The statistical differences between compound treated and control groups were analyzed by One-way ANOVA. *: p<0.05 and **: p<0.01.

In assay [1] the test system is histone H3 and H4 methylation and acetylation. Put plainly: Histone modifications in F9 cells (Western blotting). It is filed as cell-based, mouse. The protocol:
To quantify and compare the protein band densities in the Western blots shown in the figures, a titration by serial dilution of the siRNA protein samples for mES cell lysates was used as a reference. The concentration of titration samples was measured by use of a NanoDrop 2000 apparatus, and the protein concentration of all titration samples was adjusted to 1 μg/μL. The protein samples were loaded onto an SDS-polyacrylamide gel at levels ranging from 1 μg to 13 μg at 2-μg intervals and immune blotted with each antibody, including anti-LSD1, anti-HDAC1, and anti-histone H3 antibodies, with three independent loadings. The Western blots were developed with exposure times ranging from 30 s to 1 min. The exposure density of each band was scanned by Adobe Photoshop Elements (version 4.0) software using a CanonScan 8600F scanner (Canon, Calif.) and was subsequently quantified by use of the area density tool of Gel-Pro Analyzer (version 4.0) software (Media Cybernetics, Inc.) and plotted. The regression analysis of each signal was performed by use of the Microsoft Excel program's Analysis Tool Pak regression option. […] The amount of the protein band in the Western blot shown in the figures was quantified by scanning, as described for the reference titration. […] The quantity of protein band densities between two protein samples was externally corrected by use of the reference plots. […] The statistical differences between the experimental and control groups were analyzed by one-way analysis of variance (ANOVA). […]
Referring to FIG. 28D, time course analyses of the effects of 50 μM LSD1 inhibitor CBB1007 on histone modifications in F9 cells are shown, but with a shorter time course than above. The mean density of each band was quantified by the use of Gel-Pro Analyzer (version 4.0) software, and error bars represent SEMs for duplicate samples. […] The statistical differences were analyzed by one-way ANOVA. *, P_0.05; **, P_0.01. […]

Where only a bound is given, the exact number is not on record here.

Regarding `COC(=O)c1cc(CN2CCN(C(=N)N)CC2)cc(C(=O)N2CCN(C(=O)c3ccc(C(=N)N)cc3)CC2)c1` [CBB1007], the cell growth entry in the assay with ES-2 cells was “not sensitive”; with A549 cells it was “specifically inhibited the growth”; in the assay on NCI-H520 cells, “selectively and specifically inhibit the growth”; in the assay with G401 cells it was “inhibited”. Besides, in assay [1], the “H3K4 methylation of oligonucleosomes from treated cells” value was “hypermethylated on H3K4”. Besides, in assay [1] (50 μM), the “time to increases of acetylation at H4K16 and H3K56 and mono- and dimethylation at H3K4” value is recorded as not above 20 min.
